Counter-ions that a name gives are not always drawn.

The IC50 is the concentration at which inhibition is half-maximal.

Holding throughout (format): biochemical
The target in experiment [1] is T1, human CGT (ceramide galactosyltransferase), CHO/CGT lysate (Homo sapiens, UniProt Q16880).
T1 construct: Full-length human CGT cDNA was cloned into the BamH1/Xho1 site of pcDNA3.1 (+); expressed in transfected cells; host or cells: Chinese hamster ovary (CHO) cells; lysate prepared with M-PER
T1 sequence (Q16880 21-541): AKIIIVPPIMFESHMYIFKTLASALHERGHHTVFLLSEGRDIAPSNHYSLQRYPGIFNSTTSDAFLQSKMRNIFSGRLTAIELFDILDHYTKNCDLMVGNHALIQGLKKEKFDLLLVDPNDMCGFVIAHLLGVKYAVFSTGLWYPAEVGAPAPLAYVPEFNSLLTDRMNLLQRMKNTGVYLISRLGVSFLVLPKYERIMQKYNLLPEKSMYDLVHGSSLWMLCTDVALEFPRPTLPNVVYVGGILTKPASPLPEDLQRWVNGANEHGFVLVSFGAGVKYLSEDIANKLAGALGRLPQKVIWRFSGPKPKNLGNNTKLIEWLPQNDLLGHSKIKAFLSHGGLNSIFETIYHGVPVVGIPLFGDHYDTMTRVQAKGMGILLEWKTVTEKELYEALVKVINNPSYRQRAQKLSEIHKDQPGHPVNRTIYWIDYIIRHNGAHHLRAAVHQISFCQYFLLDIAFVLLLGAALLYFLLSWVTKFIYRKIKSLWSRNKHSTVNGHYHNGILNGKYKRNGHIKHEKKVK
The experiment in a line: CGT enzyme assay, RapidFire/MS/MS readout (Table 1 ranges with one asterisk *). The following applies: RapidFire method (range with one asterisk *). An outline of the steps: (§1)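 Lysate (4 μg) of CHO cells transfected with full-length human CGT incubated 1 h at 37 °C with compound (0.001–50 μM) in pH 7.2 HEPES buffer with 10 μM C6-NBD-dihydro-ceramide, 17.5 μM UDP-galactose, Mg2+/Mn2+, CHAPS, BSA, 0.5% DMSO; ** set also contained 0.01% Tween 80. Product quantified by RapidFire/MS/MS, normalized to internal standard; IC50 from sigmoidal variable-slope fits.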

Experiment [2] concerns the target T1, human CGT (ceramide galactosyltransferase), CHO/CGT lysate. In words: CGT enzyme assay, LC-MS/MS readout (Table 1 ranges without asterisk). The following applies: LC-MS/MS method (range without asterisk). Summed up:
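Lysate of CHO cells transfected with full-length human CGT incubated 1 h at 37 °C with compound (0.001–50 μM) in HEPES pH 7.2 with 17.5 μM UDP-galactose and C12:0 (2R-OH) ceramide substrate, 0.5% DMSO, no Tween 80. Galactosylceramide product quantified by LC-MS/MS against C12 ceramide internal standard; IC50 calculated.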

The target is the same in experiment [3]. In words: CGT enzyme assay, RapidFire/MS/MS readout with 0.01% Tween added (Table 1 ranges with two asterisks **). The conditions noted are these: CGT enzyme assay, RapidFire/MS/MS method with 0.01% Tween added (range with two asterisks **). An outline of the steps:
as §1

On to `CC(C)Oc1ccc2cc(S(=O)(=O)N[C@H](C(=O)N3C4CCC3CC(N)C4)C(F)(F)c3ccc(Br)cc3)ccc2c1` (stereo partly drawn) [Compound 1-1, N-((2R)-3-(3-amino-8-azabicyclo[3.2.1]octan-8-yl)-1-(4-bromophenyl)-1,1-difluoro-3-oxopropan-2-yl)-6-isopropoxynaphthalene-2-sulfonamide], for which the IC50 in experiment [1] and in experiment [2] was 1 to 10 µM throughout. For the compound `NC1CC2CCC(C1)N2C(=O)[C@@H](NS(=O)(=O)c1ccc2cc(OC3CCCC3)ccc2c1)C(F)(F)c1ccc(Br)cc1` (stereo partly drawn) [Compound 5-1, N-((2R)-3-(3-amino-8-azabicyclo[3.2.1]octan-8-yl)-1-(4-bromophenyl)-1,1-difluoro-3-oxopropan-2-yl)-6-(cyclopentyloxy)naphthalene-2-sulfonamide], the IC50 in experiment [3], in experiment [1] and in experiment [2] was less than 1 µM each time. Turning to `CC(C)Oc1ccc2cc(S(=O)(=O)N[C@H](C(=O)N3C4CCC3CC(N)C4)C(F)(F)c3ccc(Cl)cc3)ccc2c1` (stereo partly drawn) [Compound 8-1, N-((2R)-3-(3-amino-8-azabicyclo[3.2.1]octan-8-yl)-1-(4-chlorophenyl)-1,1-difluoro-3-oxopropan-2-yl)-6-isopropoxynaphthalene-2-sulfonamide trifluoroacetate], the IC50 in experiment [1] and in experiment [2] was 1 to 10 µM each time. Consider `CC(C)Oc1ccc2cc([C@@H](O)C(=O)N[C@@H](C(=O)N3C4CCC3CC(N)C4)C(F)(F)c3ccc(Br)cc3)ccc2c1` (stereo partly drawn) [Compound 19-4, (2R)—N-((2S)-3-(3-amino-8-azabicyclo[3.2.1]octan-8-yl)-1-(4-bromophenyl)-1,1-difluoro-3-oxopropan-2-yl)-2-hydroxy-2-(6-isopropoxynaphthalen-2-yl)acetamide trifluoroacetate], for which the IC50 in experiment [1] and in experiment [2] was 30 to 100 µM in each case. In experiment [2], `NC1CC2CCC(C1)N2C(=O)[C@@H](NS(=O)(=O)c1ccc(OCCC2CCCCC2)cc1)C(F)(F)c1ccc(Br)cc1` (stereo partly drawn) [Compound 26-1, N-((2R)-3-(3-amino-8-azabicyclo[3.2.1]octan-8-yl)-1-(4-bromophenyl)-1,1-difluoro-3-oxopropan-2-yl)-4-(2-cyclohexylethoxy)benzenesulfonamide trifluoroacetate] yielded an IC50 of 1 to 10 µM.

`NC1CC2CCC(C1)N2C(=O)[C@H](NS(=O)(=O)c1ccc(OCCC2CCCCC2)cc1)C(F)(F)c1ccc(Br)cc1` (stereo partly drawn) [Compound 26-2, N-((2S)-3-(3-amino-8-azabicyclo[3.2.1]octan-8-yl)-1-(4-bromophenyl)-1,1-difluoro-3-oxopropan-2-yl)-4-(2-cyclohexylethoxy)benzenesulfonamide trifluoroacetate]: the IC50 in experiment [2] lay in the range of 30 to 100 µM. Same read-out and setting: the figure for `CC(C)Oc1ccc2cc(S(=O)(=O)N[C@H](C(=O)N3CCC(N)CC3)C(F)(F)c3ccc(Br)cc3)ccc2c1` [Compound 27-1, (R)—N-(3-(4-aminopiperidin-1-yl)-1-(4-bromophenyl)-1,1-difluoro-3-oxopropan-2-yl)-6-isopropoxynaphthalene-2-sulfonamide trifluoroacetate] is 1 to 10 µM; for `CC(C)Oc1ccc2cc(S(=O)(=O)N[C@@H](C(=O)N3CCC(N)CC3)C(F)(F)c3ccc(Br)cc3)ccc2c1` [Compound 27-2, (S)—N-(3-(4-aminopiperidin-1-yl)-1-(4-bromophenyl)-1,1-difluoro-3-oxopropan-2-yl)-6-isopropoxynaphthalene-2-sulfonamide trifluoroacetate] it is 10 to 30 µM. In experiment [2], `CC(C)Oc1ccc2cc(S(=O)(=O)N[C@H](C(=O)N3CCC(N)CC3)C(F)(F)c3ccc(Br)cc3)ccc2c1Br` [Compound 119-1, (R)—N-(3-(4-aminopiperidin-1-yl)-1-(4-bromophenyl)-1,1-difluoro-3-oxopropan-2-yl)-5-bromo-6-isopropoxynaphthalene-2-sulfonamide] had an IC50 of 1 to 10 µM. `CC(C)Oc1ccc2cc(S(=O)(=O)N[C@@H](C(=O)N3CCC(N)CC3)C(F)(F)c3ccc(Br)cc3)ccc2c1Br` [Compound 119-2, (S)—N-(3-(4-aminopiperidin-1-yl)-1-(4-bromophenyl)-1,1-difluoro-3-oxopropan-2-yl)-5-bromo-6-isopropoxynaphthalene-2-sulfonamide] returned an IC50 in experiment [2] of 10 to 30 µM. On the same count and under the same terms, the figure for `NC1CC2CCC(C1)N2C(=O)C(NS(=O)(=O)c1ccc(-c2ccc(F)cc2)nc1)C(F)(F)c1ccc(Br)cc1` (stereo not shown) [Compound 199, N-(3-(3-amino-8-azabicyclo[3.2.1]octan-8-yl)-1-(4-bromophenyl)-1,1-difluoro-3-oxopropan-2-yl)-6-(4-fluorophenyl)pyridine-3-sulfonamide] is 30 to 100 µM.

The record behind these values is patent publication US20190322676A1, “CERAMIDE GALACTOSYLTRANSFERASE INHIBITORS FOR THE TREATMENT OF DISEASE” (BioMarin Pharmaceutical Inc., priority 2016, published 2019).
